From patent publication US8088934B2, “Composition and method for stabilizing the same” (SUCAMPO AG, priority 1999, dated 2012)
Each block holds one molecule with its values, some of them ahead of it.

Assays:
Format in all cases: physicochemical
[1] = Stability of the compounds stored solely (crystal, without solvent) at 40° C., content by HPLC; conditions: crystal (no solvent), hard glass container
Procedure: (§1) The above-described compounds 1 and 2 were dissolved in the medium chain fatty acid triglyceride (MCT)^31 at the amount shown in the table 1 below respectively. Each of the solutions was placed in a container made of hard glass and stored at 40° C. The time-course of the content of the compound 1 and 2 in the solutions were determined by HPLC method. The medium chain fatty acid triglyceride used herein was a mixture of caprylic acid triglyceride and capric acid triglyceride (85:15). At the same time, each of the compounds 1 and 2 was placed solely (without being dissolved in the solvent) in the container as above and stored at 40° C. to provide control study.
(1) Under the absence of the solvent, the content of the compound was determined as follows (HPLC method).
The stored compounds 1 and 2, and standard compounds 1 and 2 were weighed precisely around 0.025 g each, and exactly 5 ml aliquots of an internal standard solution were added to the respective weighed compounds. Then the test and standard preparations were obtained by adding acetonitrile (liquid chromatograph grade) to give the precise total amount of 10 ml each. Each 10 μl of the test and standard preparations was loaded on liquid chromatograph and determined the content of the compound by internal standard method with one point calibration curve.
[formula] Ws: The amount of the compound in the standard preparation (mg) WT: The amount of the compound 1 or 2 in the test preparation QS: Peak area ratio of the compound in the standard preparation to the internal standard. QT: Peak area ratio of the compound in the test preparation to the internal standard. Measurement Conditions Detector: Ultraviolet absorption spectrophotometer (wavelength: 294 nm) Column: A stainless tube having about 5 mm of internal diameter and about 25 cm of length, packed with 5 μm octadecylsilyl silica gel for liquid chromatograph Column temperature: Stable at around 35° C. Mobile phase: Mixed solution of acetonitrile (liquid chromatograph grade)/aqueous sodium acetate (0.01 mol/l)/glacial acetic acid (800:200:1) (2) Under the presence of the solvent, the content of the compound was determined as follows (HPLC method).

[2] = Stability of the compounds dissolved in medium chain fatty acid triglyceride (MCT) stored at 40° C., content by HPLC; conditions: for stability on admixing with the glyceride (conclusion from Table 1): MCT versus crystal; for content of the compound stored at 40° C., 14 days / content of the compound stored at 40° C., initial: in MCT (compound 1: 0.36 mg/g; compound 2: 0.12 mg/g)
Procedure: as §1
(§2) Based on the value expressed in the table 1, an amount of the solution corresponding to 36 μg of the compound 1 or 2 was weighted precisely. Precisely 1.0 ml of an internal standard solution was added, and then ethyl acetate (liquid chromatograph grade) was added to give the total amount of 10 ml each. Each 0.1 ml of the solution was vacuum concentrated to dryness to give the test preparation.
(§3) Each 18 mg of the respective standard compounds was weighted precisely and admixed with ethyl acetate (liquid chromatograph grade) to give the total amount of exactly 50 ml each. One (1.0) ml of the solution and 10.0 ml of the internal standard solution were measured precisely and admixed with ethyl acetate (liquid chromatograph grade) to give the total amount of 100 ml each. Each 0.1 ml of the solution was vacuum concentrated to dryness to give the standard preparation.
(§4) To the test and standard preparations, 0.1 ml of fluorescent labeling reagent and 0.85 ml of fluorescent labeling catalyst were added respectively, and the mixture was stirred and reacted at room temperature more than 30 minutes. 0.05 ml aliquots of acetonitrile (liquid chromatograph grade) containing 2% acetic acid were added to the reaction mixtures respectively, stirred and then stand for more than 30 minutes to provide test and standard solutions.
(§5) Each 10 μl of the test and standard solutions was loaded on liquid chromatograph and determined the content of the respective compounds by internal standard method with one point calibration curve.
(§6) [formula] WS: The amount of the compound in the standard preparation (mg) QS: Peak area ratio of the compound in the standard preparation to the internal standard QT: Peak area ratio of the compound in the test preparation to the internal standard. Measurement Condition Detector: fluorescent spectrometer (excitation wavelength 259 nm, fluorescent wavelength 394 nm) Column: A stainless tube having about 5 mm of internal diameter and about 25 cm of length, packed with 5 μm octadecylsilyl silica gel for liquid chromatograph Column temperature: Stable at around 35° C. Mobile phase: Mixed solution of acetonitrile (liquid chromatograph grade)/methanol (liquid chromatograph grade)/aqueous ammonium acetate (0.05 mol/l) (4:11:5) The results are shown in Table 1 below.

[3] = Stability of compound 1 stored at 40° C. for 4 weeks in various solvents and containers, content by HPLC
Procedure: as §2, §3, §4, §5, §6
Each of the solutions was placed in a container made of low-density polyethylene (LDPE), hard glass or stainless steel and stored at 40° C. The content of the compound 1 in the solutions after four weeks were determined by HPLC method according to the above described (2) of Example 1 except for using composition shown in table 2 below.

[4] = Stability of compound 1 stored at 40° C. for 4 weeks in various ratio of MCT to Mineral oil, content by HPLC
Procedure: as §2, §3, §4, §5, §6
Each of the solutions was placed in a container made of LDPE and stored at 40° C. The content of the compound in the solutions after four weeks were determined by HPLC method according to the above described (2) of Example 1 except for using composition shown in table 3 below.

- content of the compound stored at 40° C., 7 days ([1]; 7 days): 97.2%
- content of the compound stored at 40° C., 14 days [1]: 94.1%
- content of the compound stored at 40° C., 28 days [1]: 87.4%
- content of the compound stored at 40° C., initial [1]: 100%
- stability on admixing with the glyceride (conclusion from Table 1) [2]: significantly improved
- content of the compound stored at 40° C., 38 days ([2]; in MCT (compound 1: 0.36 mg/g), hard glass, 38 days): 102.1%
- content of the compound stored at 40° C., 90 days ([2]; in MCT (compound 1: 0.36 mg/g), hard glass, 90 days): 100.9%
- content of the compound stored at 40° C., 14 days ([2]; hard glass): 101.4%
- content of the compound stored at 40° C., initial ([2]; hard glass): 100%
- % to the initial 4 weeks after ([3]; 10 μg/mL, MCT, LDPE container): 100.8%
- % to the initial 4 weeks after ([3]; 10 μg/mL, Saline, Hard glass container): 18.0%
- % to the initial 4 weeks after ([3]; 20 μg/mL, Caster oil, LDPE container): 102.9%
- % to the initial 4 weeks after ([3]; 20 μg/mL, Corn oil, LDPE container): 99.6%
- % to the initial 4 weeks after ([3]; 20 μg/mL, Diluted water, Hard glass container): 39.6%
- % to the initial 4 weeks after ([3]; 20 μg/mL, MCT, Hard glass container): 99.5%
- % to the initial 4 weeks after ([3]; 20 μg/mL, MCT, Stainless steel container): 99.5%
- % to the initial 4 weeks after ([3]; 20 μg/mL, Olive oil, LDPE container): 99.0%
- % to the initial 4 weeks after ([3]; 20 μg/mL, Sesame oil, LDPE container): 100.1%
- stability on admixing with the glyceride (conclusion from Table 2) ([3]; glycerides versus water or saline): significantly improved
- % to the initial 4 weeks after ([4]; 0.5 μg/mL, MCT/MO (V/V) 1/99, LDPE): 91.0%
- % to the initial 4 weeks after ([4]; 0.5 μg/mL, MCT/MO (V/V) 2/98, LDPE): 96.6%
- % to the initial 4 weeks after ([4]; 0.5 μg/mL, MCT/MO (V/V) 5/95, LDPE): 98.1%
- % to the initial 4 weeks after ([4]; 0.5 μg/mL, MCT/MO (V/V) 10/90, LDPE): 99.0%
- % to the initial 4 weeks after ([4]; 0.7 μg/mL, MCT/MO (V/V) 0/100, LDPE): 88.3%
- % to the initial 4 weeks after ([4]; 10 μg/mL, MCT/MO (V/V) 50/50, LDPE): 101.9%
- stability on admixing with the mixture of glyceride and other oil solvent (conclusion from Table 3) ([4]; MCT/Mineral oil mixtures): significantly improved
Structure (SMILES): CCCCC(F)(F)[C@@]1(O)CC[C@H]2[C@@H](CC(=O)[C@@H]2CCCCCCC(=O)O)O1 [compound 1, 7-[(1R,3R,6R,7R)-3-(1,1-difluoropentyl)-3-hydroxy-2-oxabicyclo[4.3.0]nonane-8-one-7-yl]heptanoic acid]

- content of the compound stored at 40° C., 6 days ([1]; 6 days): 84.5%
- content of the compound stored at 40° C., 14 days [1]: 75.0%
- content of the compound stored at 40° C., 28 days [1]: 53.4%
- content of the compound stored at 40° C., initial [1]: 100%
- stability on admixing with the glyceride (conclusion from Table 1) [2]: significantly improved
- content of the compound stored at 40° C., 14 days ([2]; hard glass): 99.6%
- content of the compound stored at 40° C., initial ([2]; hard glass): 100%
- content of the compound stored at 40° C., 28 days ([2]; in MCT (compound 2: 0.12 mg/g), hard glass, 28 days): 98.9%
- content of the compound stored at 40° C., 191 days ([2]; in MCT (compound 2: 0.12 mg/g), hard glass, 191 days): 99.6%
Structure (SMILES): CC[C@H](C)CC(F)(F)[C@@]1(O)CC[C@H]2[C@@H](CC(=O)[C@@H]2CCCCCCC(=O)O)O1 [compound 2, 7-[(1R,6R,7R)-3-[(3S)-1,1-difluoro-3-methylpentyl]-3-hydroxy-2-oxabicyclo[4.3.0]nonane-8-one-7-yl]heptanoic acid]
